Data published in ChEMBL document CHEMBL1135757, “Orally active, water-soluble antimalarial 3-aryltrioxanes: short synthesis and preclinical efficacy testing in rodents” (J Med Chem, 2002).

What was measured:
Plasmodium berghei [1] = experiment: (§1) Antimalarial activity against Plasmodium berghei in mice (Mus musculus); type: functional, organism-based
Plasmodium berghei [2] = experiment: as §1; type: functional

Row | Compound | IC50 (Plasmodium berghei [1]) | ED50 (Plasmodium berghei [2]) | ED90 (Plasmodium berghei [2])
1 | Fc1ccc([C@]23CC[C@H]4CCCC[C@@]4(OO2)[C@H](OCc2ccccc2)O3)cc1 | 31 nM | – | –
2 | O=C(O)c1ccc([C@@]23CC[C@H]4CCC[C@H]5CCO[C@H](O2)[C@@]45OO3)cc1 | – | 15 mg/kg | 51 mg/kg
3 | O=C(O)c1ccc([C@]23CC[C@H]4CCCC[C@@]4(OO2)[C@H](OCc2ccccc2)O3)cc1 | – | 17 mg/kg | 59 mg/kg
4 | c1ccc([C@@]23CC[C@H]4CCC[C@H]5CCO[C@H](O2)[C@@]45OO3)cc1 | 1.3 nM | – | –
5 | C[C@@H]1[C@H](OCc2ccc(C(=O)O)cc2)O[C@@H]2O[C@@]3(C)CC[C@@H]4[C@@H](C)CC[C@@H]1[C@]24OO3 [ARTELINIC ACID] | – | 9.6 mg/kg | 29 mg/kg
6 | C[C@@H]1CC[C@H]2[C@@H](C)C(=O)O[C@@H]3O[C@@]4(C)CC[C@@H]1[C@]32OO4 [ARTEMISININ] | 9.4 nM | – | –
